The assay concerns the target AD homogenates (Homo sapiens, UniProt P05067). Nature of the assay: Saturation binding of [18F]-9 with AD homogenates. How it is done:
For assessing the ability of [^18F]-9 to bind Aβ plaques; binding assays with either AD homogenates or preformed Aβ1–42 aggregates were performed in 30 mM Tris, pH 7.4 buffer supplemented with 0.1% BSA[39]. Nonspecific binding was determined in the presence of 5 (1 μM) as a competitor.
Scientific Reports Version of August 4, 2016 other neurodegenerative diseases (SI, Figure 4A & 4B). Sections were visualized, processed, and analyzed using a Pascal confocal microscope.
Preparation of Human Brain Homogenates.
Well-established literature procedures were used for preparation of AD homogenates. 11,12 Grey matter was isolated from frozen postmortem frontal cortex tissue by dissection with a scalpel. […]
Binding assays were performed using previously described methods.11 Briefly, a fixed concentration (0.25 µM/well) of Aβ1–42 fibrils was incubated for 1 h at 37 °C with increasing concentrations of [18F]-9 (0.1 nM-15 nM) in 30 mM Tris-HCl pH 7.4, 0.1% BSA in a reaction volume of 150 µl. […] The exact hot:cold ([18F]-9 : 5) ratio was measured in each experiment by counting an aliquot of a sample (2 µl) of the radioligand preparation in a scintillation counter. Binding of [18F]-9 to human brain homogenates was assessed by incubating samples of insoluble fraction (1.25 µg insoluble protein/well) from AD subjects, with increasing concentrations of [18F]-9 (0.1nM-18 nM) for 1 h at 37 °C. Nonspecific binding was determined in parallel experiments in the presence of 5 (1 µM) as a competitor. […] Glass fiber filters containing the bound ligand were mixed with Optiphase Supermix scintillation cocktail (150µl; PerkinElmer) and counted immediately.
All data were obtained in triplicate and analyzed by curve fitting to a one-site binding model using nonlinear regression employing Graphpad Prism software (version 4.0) to determine Kd and Bmax values.
Bmax values were calculated in pmol/gram wet weight of brain tissue. […]

pKd: −log10 of the molar value.

Chain of AD homogenates (P05067 672-711 limits assumed): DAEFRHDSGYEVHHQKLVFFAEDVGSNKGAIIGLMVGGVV

Turning to `CN(C)c1ncc(/C=C\c2nc3cc(OCC[18F])ccc3[se]2)cn1` [[^18F]-9], the Bmax came to 546 pmol/g wet wt and the “binding affinity higher than approved FDA tracers” value is given as 2–10 fold. Further, the pKd (30 mM Tris pH 7.4, 0.1% BSA, one-site model) is 8.77.

The term pKd denotes −log10 of the Kd, conventionally taken in molar units.

Source of the values: article PMC5090206, “Fluselenamyl: A Novel Benzoselenazole Derivative for PET Detection of Amyloid Plaques (Aβ) in Alzheimer’s Disease” (Scientific Reports, 2016).
